Measured values: the SangsterLogP compilation

assay: method code SF-HPLC, from Li, N. Y., Li, Y., & Gorrod, J. W. (1992). Determination of partition coefficients and ionisation constants of(S)(-)-nicotine and certain metabolites. Med. Sci. Res., 20(23)901-902.; conditions: pH 2.0

Row | logD | Compound
1 | -2.42 | O=C(O)Cc1cccnc1
2 | -1.06 | O=C(O)CCC(=O)c1cccnc1

same assay, conditions: pH 7.4

Row | logD | Compound
3 | -0.13 | CNC(=O)CCC(=O)c1cccnc1
4 | 0.07 | CN1C(=O)CC[C@H]1c1cccnc1
5 | -1.22 | CN1C(=O)C(O)CC1c1cccnc1 (centres undefined)
6 | -2.54 | CN1C(=O)CCC1c1ccc[n+]([O-])c1 (centres undefined)

same assay, conditions: pH 12.0

Row | logD | Compound
7 | -1.01 | O=C1CCC(c2ccc[n+]([O-])c2)N1 (centres undefined)
8 | -0.57 | CN1C(=O)CCC1(O)c1cccnc1 (centres undefined)

Row | Compound | logD
9 | O=C1CC[C@@H](c2cccnc2)N1 | -0.4
